Assay results as given in ChEMBL document CHEMBL3885881, “DrugMatrix”.

Organism: Rattus norvegicus
Assay: DrugMatrix - Regimen: Daily Repeat
Type: toxicity, organism-based, Sprague-Dawley
Parameters: regimen Daily Repeat, gender Male, age 6-8 weeks
Conditions: in vivo, po, route oral GAVAGE, […]; for ABSOLUTE BASOPHIL / ABSOLUTE EOSINOPHIL / ABSOLUTE LYMPHOCYTE / ABSOLUTE MONOCYTE / ABSOLUTE SEGMENTED NEUTROPHIL / BASOPHIL / EOSINOPHIL / ERYTHROCYTE COUNT / HEMATOCRIT / HEMOGLOBIN / LEUKOCYTE COUNT / LYMPHOCYTE / MEAN CORPUSCULAR HEMOGLOBIN / MEAN CORPUSCULAR HEMOGLOBIN CONCENTRATION / MEAN CORPUSCULAR VOLUME / MONOCYTE / NEUTROPHIL / NUCLEATED RED BLOOD CELLS / PLATELET COUNT: tissue Blood; for ALANINE AMINOTRANSFERASE / ALBUMIN / ALKALINE PHOSPHATASE / ASPARTATE AMINOTRANSFERASE / BLOOD UREA NITROGEN / CARBON DIOXIDE / CHLORIDE / CHOLESTEROL / CREATINE PHOSPHOKINASE / CREATININE / GLUCOSE / LACTATE DEHYDROGENASE / LIPASE / PHOSPHORUS / POTASSIUM / SODIUM / TOTAL BILIRUBIN / TOTAL PROTEIN / URIC ACID: tissue Plasma
[1] = 6 mg/kg, 120 h, dose level Low, time 5 day
[2] = 74 mg/kg, 72 h, dose level High, time 3 day
[3] = 74 mg/kg, 120 h, dose level High, time 5 day

Structure (SMILES): CO[C@H]1O[C@@H]2O[C@@]3(C)CC[C@H]4[C@H](C)CC[C@@H]([C@H]1C)[C@@]24OO3
- ABSOLUTE BASOPHIL [1]: 0 CELLS/uL
- ABSOLUTE EOSINOPHIL [1]: 153 CELLS/uL
- ABSOLUTE LYMPHOCYTE [1]: 12396 CELLS/uL
- ABSOLUTE MONOCYTE [1]: 197.67 CELLS/uL
- ABSOLUTE SEGMENTED NEUTROPHIL [1]: 1920 CELLS/uL
- BASOPHIL [1]: 0%
- EOSINOPHIL [1]: 1%
- ERYTHROCYTE COUNT [1]: 5.88 x10E6/uL
- HEMATOCRIT [1]: 36.63%
- HEMOGLOBIN [1]: 13.47 G/DL
- LEUKOCYTE COUNT [1]: 14.67 x10E3/uL
- LYMPHOCYTE [1]: 84.33%
- MEAN CORPUSCULAR HEMOGLOBIN [1]: 22.93 pg
- MEAN CORPUSCULAR HEMOGLOBIN CONCENTRATION [1]: 36.8 G/DL
- MEAN CORPUSCULAR VOLUME [1]: 62.33 fL
- MONOCYTE [1]: 1.33%
- NEUTROPHIL [1]: 13.33%
- NUCLEATED RED BLOOD CELLS [1]: 0 /100WBC
- PLATELET COUNT [1]: 1198.67 x10E3/uL
- ALANINE AMINOTRANSFERASE [1]: 52.67 u/L
- ALBUMIN [1]: 4.37 G/DL
- ALKALINE PHOSPHATASE [1]: 430.33 u/L
- ASPARTATE AMINOTRANSFERASE [1]: 101 u/L
- BLOOD UREA NITROGEN [1]: 17.67 mg/dL
- CARBON DIOXIDE [1]: 23.33 mmol/L
- CHLORIDE [1]: 105.67 MEQ/L
- CHOLESTEROL [1]: 58.67 mg/dL
- CREATINE PHOSPHOKINASE [1]: 552.33 u/L
- CREATININE [1]: 0.16 mg/dL
- GLUCOSE [1]: 160 mg/dL
- LACTATE DEHYDROGENASE [1]: 887.67 u/L
- LIPASE [1]: 8.33 u/L
- PHOSPHORUS [1]: 11.77 mg/dL
- POTASSIUM [1]: 6.02 MEQ/L
- SODIUM [1]: 144.53 MEQ/L
- TOTAL BILIRUBIN [1]: 0.17 mg/dL
- TOTAL PROTEIN [1]: 5.93 G/DL
- URIC ACID [1]: 1.83 mg/dL
- ABSOLUTE BASOPHIL [2]: 0 CELLS/uL
- ABSOLUTE EOSINOPHIL [2]: 390 CELLS/uL
- ABSOLUTE LYMPHOCYTE [2]: 14550 CELLS/uL
- ABSOLUTE MONOCYTE [2]: 453 CELLS/uL
- ABSOLUTE SEGMENTED NEUTROPHIL [2]: 1407 CELLS/uL
- BASOPHIL [2]: 0%
- EOSINOPHIL [2]: 2.33%
- ERYTHROCYTE COUNT [2]: 5.21 x10E6/uL
- HEMATOCRIT [2]: 33.1%
- HEMOGLOBIN [2]: 12.6 G/DL
- LEUKOCYTE COUNT [2]: 16.8 x10E3/uL
- LYMPHOCYTE [2]: 86.67%
- MEAN CORPUSCULAR HEMOGLOBIN [2]: 24.23 pg
- MEAN CORPUSCULAR HEMOGLOBIN CONCENTRATION [2]: 38.07 G/DL
- MEAN CORPUSCULAR VOLUME [2]: 63.67 fL
- MONOCYTE [2]: 2.67%
- NEUTROPHIL [2]: 8.33%
- NUCLEATED RED BLOOD CELLS [2]: 0 /100WBC
- PLATELET COUNT [2]: 1173 x10E3/uL
- ALANINE AMINOTRANSFERASE [2]: 46 u/L
- ALBUMIN [2]: 4.13 G/DL
- ALKALINE PHOSPHATASE [2]: 349.67 u/L
- ASPARTATE AMINOTRANSFERASE [2]: 77.33 u/L
- BLOOD UREA NITROGEN [2]: 16 mg/dL
- CARBON DIOXIDE [2]: 27 mmol/L
- CHLORIDE [2]: 103.33 MEQ/L
- CHOLESTEROL [2]: 66.67 mg/dL
- CREATINE PHOSPHOKINASE [2]: 259.33 u/L
- CREATININE [2]: 0.23 mg/dL
- GLUCOSE [2]: 144.67 mg/dL
- LACTATE DEHYDROGENASE [2]: 331.33 u/L
- LIPASE [2]: 9.33 u/L
- PHOSPHORUS [2]: 10.07 mg/dL
- POTASSIUM [2]: 6.54 MEQ/L
- SODIUM [2]: 142.23 MEQ/L
- TOTAL BILIRUBIN [2]: 0.2 mg/dL
- TOTAL PROTEIN [2]: 5.63 G/DL
- URIC ACID [2]: 1.17 mg/dL
- ABSOLUTE BASOPHIL [3]: 0 CELLS/uL
- ABSOLUTE EOSINOPHIL [3]: 257.33 CELLS/uL
- ABSOLUTE LYMPHOCYTE [3]: 17040 CELLS/uL
- ABSOLUTE MONOCYTE [3]: 413.67 CELLS/uL
- ABSOLUTE SEGMENTED NEUTROPHIL [3]: 1822.33 CELLS/uL
- BASOPHIL [3]: 0%
- EOSINOPHIL [3]: 1.33%
- ERYTHROCYTE COUNT [3]: 6.13 x10E6/uL
- HEMATOCRIT [3]: 36.63%
- HEMOGLOBIN [3]: 13.57 G/DL
- LEUKOCYTE COUNT [3]: 19.53 x10E3/uL
- LYMPHOCYTE [3]: 87%
- MEAN CORPUSCULAR HEMOGLOBIN [3]: 22.17 pg
- MEAN CORPUSCULAR HEMOGLOBIN CONCENTRATION [3]: 37.03 G/DL
- MEAN CORPUSCULAR VOLUME [3]: 59.77 fL
- MONOCYTE [3]: 2%
- NEUTROPHIL [3]: 9.67%
- NUCLEATED RED BLOOD CELLS [3]: 0.33 /100WBC
- PLATELET COUNT [3]: 1300.33 x10E3/uL
- ALANINE AMINOTRANSFERASE [3]: 55.33 u/L
- ALBUMIN [3]: 4.3 G/DL
- ALKALINE PHOSPHATASE [3]: 329 u/L
- ASPARTATE AMINOTRANSFERASE [3]: 100 u/L
- BLOOD UREA NITROGEN [3]: 16.33 mg/dL
- CARBON DIOXIDE [3]: 25 mmol/L
- CHLORIDE [3]: 102.67 MEQ/L
- CHOLESTEROL [3]: 51.67 mg/dL
- CREATINE PHOSPHOKINASE [3]: 790.67 u/L
- CREATININE [3]: 0.21 mg/dL
- GLUCOSE [3]: 171.67 mg/dL
- LACTATE DEHYDROGENASE [3]: 649.67 u/L
- LIPASE [3]: 9.67 u/L
- PHOSPHORUS [3]: 12.37 mg/dL
- POTASSIUM [3]: 5.73 MEQ/L
- SODIUM [3]: 143.53 MEQ/L
- TOTAL BILIRUBIN [3]: 0.13 mg/dL
- TOTAL PROTEIN [3]: 5.8 G/DL
- URIC ACID [3]: 1.73 mg/dL
